Results published in ChEMBL document CHEMBL1150407, “High-throughput evaluation of relative cell permeability between peptoids and peptides” (Bioorg Med Chem, 2008).

Target: T1, Glucocorticoid receptor (Homo sapiens, UniProt P04150)
T1 sequence (P04150 whole entry): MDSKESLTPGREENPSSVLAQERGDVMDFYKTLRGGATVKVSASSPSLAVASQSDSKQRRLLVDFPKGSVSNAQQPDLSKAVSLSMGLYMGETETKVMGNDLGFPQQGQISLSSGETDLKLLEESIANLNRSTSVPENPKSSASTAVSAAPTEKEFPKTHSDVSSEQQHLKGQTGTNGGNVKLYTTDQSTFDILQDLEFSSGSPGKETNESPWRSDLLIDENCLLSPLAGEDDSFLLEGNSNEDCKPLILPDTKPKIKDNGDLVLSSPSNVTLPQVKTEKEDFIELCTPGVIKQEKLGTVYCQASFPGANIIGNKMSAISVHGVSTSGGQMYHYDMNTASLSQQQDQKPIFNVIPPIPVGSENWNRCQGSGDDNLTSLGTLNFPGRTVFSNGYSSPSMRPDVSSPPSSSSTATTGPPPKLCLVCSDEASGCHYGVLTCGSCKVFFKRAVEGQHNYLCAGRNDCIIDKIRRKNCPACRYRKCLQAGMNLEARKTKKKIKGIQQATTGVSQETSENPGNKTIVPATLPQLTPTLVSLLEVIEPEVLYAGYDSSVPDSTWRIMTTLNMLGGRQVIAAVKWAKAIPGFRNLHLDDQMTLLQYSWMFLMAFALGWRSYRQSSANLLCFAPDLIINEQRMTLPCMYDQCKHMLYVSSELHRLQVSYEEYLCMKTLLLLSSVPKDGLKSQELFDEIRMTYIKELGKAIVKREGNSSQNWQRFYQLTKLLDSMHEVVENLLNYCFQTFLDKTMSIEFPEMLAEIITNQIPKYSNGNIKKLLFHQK
Test: Inhibition of glucocorticoid receptor

C[C@@H]1C[C@H]2[C@@H]3CCC4=CC(=O)C=C[C@]4(C)[C@@]3(F)[C@@H](O)C[C@]2(C)[C@@]1(O)C(=O)CSCCC(N)=O
IC50: 0.036 µM

C[C@@H]1C[C@H]2[C@@H]3CCC4=CC(=O)C=C[C@]4(C)[C@@]3(F)[C@@H](O)C[C@]2(C)[C@@]1(O)C(N)=O [OXDEX]
IC50: 0.6 µM
